Where a name gives a salt, the structure may show the parent alone.
Tested on: KMS.12.BM cells
Test: KMS.12.BM cell viability assay
Format: cell-based
Conditions: 72 h; KMS.12.BM human myeloma cells, 3 days, Cell Titer-GLO ATP quantitation; read-out: KMS cellular IC50
Description: KMS.12.BM cell line (human myeloma) was purchased from JCRB (Osaka, Japan) and maintained in RPMI with 10% FBS culture medium. To measure the cytotoxic activity of the compounds through ATP quantitation, the KMS.12.BM cells are plated in the RPMI culture medium at 5000 cells/well/per 100 μL into a 96-well polystyrene clear black tissue culture plate (Greiner-bio-one through VWR, NJ), in the presence or absence of a concentration range of test compounds. After 3 days, […] Cell Titer-GLO Luminescent (Promega, Madison, Wis.) cell culture agent is added to each well for 10 minutes at room temperature to stabilize the luminescent signal. This determines the number of viable cells in culture based on quantitation of the ATP present, which signals the presence of metabolically active cells. Luminescence is measured with the Top Count 384 (Packard Bioscience through Perkin Elmer, Boston, Mass.).
IC50 data for the Examples is presented in Table 4 as determined by Assay B1.

Row | SMILES | IC50 [µM]
1 | CCn1ccc(-c2cc3c(ccc4nnc(C)n43)n2Cc2cc(Cl)cc(CN3CCCC3)c2)n1 [Example 189, 6-(3-Chloro-5-(pyrrolidin-1-ylmethyl)benzyl)-7-(1-ethyl-1H-pyrazol-3-yl)-1-methyl-6H-pyrrolo[2,3-e][1,2,4]triazolo[4,3-a]pyridine tris(trifluoroacetate) salt] | ≤ 1
2 | Cc1nnc2ccc3c(cc(-c4ncco4)n3Cc3cc(Cl)cc(CN4CC(C)(C)C4)c3)n12 [Example 196, 6-{3-Chloro-5-[(3,3-dimethylazetidin-1-yl)methyl]benzyl}-1-methyl-7-(1,3-oxazol-2-yl)-6H-pyrrolo[2,3-e][1,2,4]triazolo[4,3-a]pyridine bis(trifluoroacetate) salt] | ≤ 1
3 | CNC(=O)CCn1ccc(-c2cc3c(ccc4nnc(C)n43)n2Cc2cccc(Cl)c2)n1 [Example 174, 3-{3-[6-(3-Chlorobenzyl)-1-methyl-6H-pyrrolo[2,3-e][1,2,4]triazolo[4,3-a]pyridin-7-yl]-1H-pyrazol-1-yl}-N-methylpropanamide trifluoroacetate salt] | ≤ 1
4 | CCNC(=O)c1cc2c(ccc3nnc(C)n32)n1Cc1cc(Cl)cc(CN2CCCC2)c1 [Example 133, 6-[3-Chloro-5-(pyrrolidin-1-ylmethyl)benzyl]-N-ethyl-1-methyl-6H-pyrrolo[2,3-e][1,2,4]triazolo[4,3-a]pyridine-7-carboxamide bis(trifluoroacetate) salt] | ≤ 1
5 | Cc1cc2c(ccc3nnc(C)n32)n1Cc1cccc(F)c1 [Example 15, 6-(3-fluorobenzyl)-1,7-dimethyl-6H-pyrrolo[2,3-e][1,2,4]triazolo[4,3-a]pyridine] | ≤ 1
6 | Cc1cc2c(cc(NC(=O)OC(C)(C)C)c3nnc(C)n32)n1Cc1ccccc1 [Example 248, tert-Butyl 6-benzyl-1,7-dimethyl-6H-pyrrolo[2,3-e][1,2,4]triazolo[4,3-a]pyridin-4-ylcarbamate] | ≤ 1
7 | Cc1nnc2ccc3c(cc(-c4cn(CCC#N)cn4)n3Cc3ccccc3)n12 [Example 81, 3-[4-(6-benzyl-1-methyl-6H-pyrrolo[2,3-e][1,2,4]triazolo[4,3-a]pyridin-7-yl)-1H-imidazol-1-yl]propanenitrile] | ≤ 1
8 | Cc1nnc2ccc3c(cc(-c4ccn(CCC(N)=O)n4)n3Cc3cccc(Cl)c3)n12 [Example 159, 3-{3-[6-(3-Chlorobenzyl)-1-methyl-6H-pyrrolo[2,3-e][1,2,4]triazolo[4,3-a]pyridin-7-yl]-1H-pyrazol-1-yl}propanamide trifluoroacetate salt] | ≤ 1
9 | Cc1nnc2ccc3c(cc(-c4ccn(CCC(=O)N5CCC5)n4)n3Cc3cccc(Cl)c3)n12 [Example 104, 7-[1-(3-azetidin-1-yl-3-oxopropyl)-1H-pyrazol-3-yl]-6-(3-chlorobenzyl)-1-methyl-6H-pyrrolo[2,3-e][1,2,4]triazolo[4,3-a]pyridine] | ≤ 1
10 | Cc1nnc2ccc3c(cc(-c4ncco4)n3Cc3ccccc3)n12 [Example 143, 6-benzyl-1-methyl-7-(1,3-oxazol-2-yl)-6H-pyrrolo[2,3-e][1,2,4]triazolo[4,3-a]pyridine trifluoroacetate salt] | ≤ 1
11 | Cc1nnc2ccc3c(cc(C(=O)NCc4ccncc4)n3Cc3cccc(Cl)c3)n12 [Example 130, 6-(3-Chlorobenzyl)-1-methyl-N-(pyridin-4-ylmethyl)-6H-pyrrolo[2,3-e][1,2,4]triazolo[4,3-a]pyridine-7-carboxamide bis(trifluoroacetate) salt] | ≤ 1
12 | Cc1cc2c(cc(N[C@H]3C[C@H](O)C3)c3nnc(C)n32)n1Cc1ccccc1 [Example 247, trans-3-(6-Benzyl-1,7-dimethyl-6H-pyrrolo[2,3-e][1,2,4]triazolo[4,3-a]pyridin-4-ylamino)cyclobutanol] | ≤ 1
13 | Cc1nnc2ccc3c(cc(-c4ccn(C5CN(C)C5)n4)n3Cc3cccc(Cl)c3)n12 [Example 180, 6-(3-Chlorobenzyl)-1-methyl-7-[1-(1-methylazetidin-3-yl)-1H-pyrazol-3-yl]-6H-pyrrolo[2,3-e][1,2,4]triazolo[4,3-a]pyridine bis(trifluoroacetate) salt] | ≤ 1
14 | CNC(=O)Nc1cc2c(cc(C)n2Cc2ccccc2)n2c(C)nnc12 [Example 229, 1-(6-Benzyl-1,7-dimethyl-6H-pyrrolo[2,3-e][1,2,4]triazolo[4,3-a]pyridin-4-yl)-3-methylurea] | ≤ 1
15 | Cc1nnc2ccc3c(cc(C(=O)NCCCO)n3Cc3ccccc3)n12 [Example 123, 6-Benzyl-N-(3-hydroxypropyl)-1-methyl-6H-pyrrolo[2,3-e][1,2,4]triazolo[4,3-a]pyridine-7-carboxamide trifluoroacetate salt] | ≤ 1
16 | Cc1cc2c(cc(N[C@H]3CC[C@@H](N(C)C)CC3)c3nnc(C)n32)n1Cc1ccccc1 [Example 222, cis-N′-(6-Benzyl-1,7-dimethyl-6H-pyrrolo[2,3-e][1,2,4]triazolo[4,3-a]pyridin-4-yl)-N,N-dimethylcyclohexane-1,4-diamine] | 1 to 10
17 | Cc1nnc2ccc3c(cc(C(=O)NCC4CC4)n3Cc3cccc(Cl)c3)n12 [Example 114, 6-(3-Chlorobenzyl)-N-(cyclopropylmethyl)-1-methyl-6H-pyrrolo[2,3-e][1,2,4]triazolo[4,3-a]pyridine-7-carboxamide trifluoroacetate salt] | ≤ 1
18 | Cc1cc2c(cc(NC(=O)N(C)C)c3nnc(C)n32)n1Cc1ccccc1 [Example 251, 3-(6-Benzyl-1,7-dimethyl-6H-pyrrolo[2,3-e][1,2,4]triazolo[4,3-a]pyridin-4-yl)-1,1-dimethylurea] | ≤ 1
19 | Cc1cc2c(cc(NC(N)=O)c3nnc(C)n32)n1Cc1ccccc1 [Example 252, 1-(6-Benzyl-1,7-dimethyl-6H-pyrrolo[2,3-e][1,2,4]triazolo[4,3-a]pyridin-4-yl)urea] | ≤ 1
20 | Cc1nnc2ccc3c(cc(C(=O)N4CC(C#N)C4)n3Cc3ccccc3)n12 [Example 60, 1-[(6-benzyl-1-methyl-6H-pyrrolo[2,3-e][1,2,4]triazolo[4,3-a]pyridin-7-yl)carbonyl]azetidine-3-carbonitrile] | ≤ 1
21 | Cc1nnc2ccc3c(cc(-c4ccn(C5CN(CCC#N)C5)n4)n3Cc3cccc(Cl)c3)n12 [Example 181, 3-(3-{3-[6-(3-Chlorobenzyl)-1-methyl-6H-pyrrolo[2,3-e][1,2,4]triazolo[4,3-a]pyridin-7-yl]-1H-pyrazol-1-yl}azetidin-1-yl)propanenitrile bis(trifluoroacetate) salt] | ≤ 1
22 | CCNC(=O)Nc1cc2c(cc(C)n2Cc2ccccc2)n2c(C)nnc12 [Example 249, 1-(6-Benzyl-1,7-dimethyl-6H-pyrrolo[2,3-e][1,2,4]triazolo[4,3-a]pyridin-4-yl)-3-ethylurea] | ≤ 1
23 | Cc1cc2c(cc(Nc3nc4ccccc4o3)c3nnc(C)n32)n1Cc1ccccc1 [Example 203, N-1,3-Benzoxazol-2-yl-6-benzyl-1,7-dimethyl-6H-pyrrolo[2,3-e][1,2,4]triazolo[4,3-a]pyridin-4-amine bis(trifluoroacetate) salt] | ≤ 1
24 | CC(=O)N1CCC(Nc2cc3c(cc(C)n3Cc3ccccc3)n3c(C)nnc23)CC1 [Example 216, N-(1-Acetylpiperidin-4-yl)-6-benzyl-1,7-dimethyl-6H-pyrrolo[2,3-e][1,2,4]triazolo[4,3-a]pyridin-4-amine] | 1 to 10
25 | Cc1cc2c(ccc3nnc(C)n32)n1Cc1ccccc1F [Example 14, 6-(2-fluorobenzyl)-1,7-dimethyl-6H-pyrrolo[2,3-e][1,2,4]triazolo[4,3-a]pyridine] | ≤ 1
26 | CNC(=O)CCn1ccc(-c2cc3c(ccc4nnc(C)n43)n2Cc2ccccc2)n1 [Example 97, 3-[3-(6-benzyl-1-methyl-6H-pyrrolo[2,3-e][1,2,4]triazolo[4,3-a]pyridin-7-yl)-1H-pyrazol-1-yl]-N-methylpropanamide] | ≤ 1
27 | Cc1nnc2ccc3c(cc(-c4ccn(C)n4)n3Cc3cc(Cl)cc(CN4CCCC4)c3)n12 [Example 190, 6-[3-Chloro-5-(pyrrolidin-1-ylmethyl)benzyl]-1-methyl-7-(1-methyl-1H-pyrazol-3-yl)-6H-pyrrolo[2,3-e][1,2,4]triazolo[4,3-a]pyridine bis(trifluoroacetate) salt] | ≤ 1
28 | Cc1nnc2ccc3c(cc(-c4ccn(CCC(=O)NC5CCOCC5)n4)n3Cc3cccc(Cl)c3)n12 [Example 170, 3-{3-[6-(3-Chlorobenzyl)-1-methyl-6H-pyrrolo[2,3-e][1,2,4]triazolo[4,3-a]pyridin-7-yl]-1H-pyrazol-1-yl}-N-(tetrahydro-2H-pyran-4-yl)propanamide trifluoroacetate salt] | ≤ 1
29 | Cc1nnc2ccc3c(cc(-c4ccn(C5CN(C(=O)C6CC6)C5)n4)n3Cc3cccc(Cl)c3)n12 [Example 164, 6-(3-Chlorobenzyl)-7-{1-[1-(cyclopropylcarbonyl)azetidin-3-yl]-1H-pyrazol-3-yl}-1-methyl-6H-pyrrolo[2,3-e][1,2,4]triazolo[4,3-a]pyridine trifluoroacetate salt] | ≤ 1
30 | CNC(=O)c1cc2c(ccc3nnc(C)n32)n1Cc1cccc(CN2CCC2)c1 [Example 122, 6-[3-(Azetidin-1-ylmethyl)benzyl]-N,1-dimethyl-6H-pyrrolo[2,3-e][1,2,4]triazolo[4,3-a]pyridine-7-carboxamide bis(trifluoroacetate) salt] | 1 to 10

Source: patent US10442803B2, “Tricyclic heterocycles as bet protein inhibitors” (Incyte Corporation, priority 2013, dated 2019)
